This passage reports IC50 and melting point results from patent publication US8735414B2 (priority 2009, dated 2014).

The test system of data set [1] is bicistronic HCV replicon (replicon RNA, GenBank Accession No. AJ242654). Nature of the data set: HCV Replicon Assay. The format is cell-based. The note with it: Hepatitis C virus, 72 h, read-out: Replicon IC50. A general note: Replicon systems follow genome replication, usually without infectious particles.

Structures are written as SMILES.

Consider `N#Cc1c(-c2ccc(S(N)(=O)=O)cn2)n(C2CCC2)c2cc(OC(F)F)c(F)cc12` [compound 722, 6-[3-cyano-1-cyclobutyl-6-(difluoromethoxy)-5-fluoro-1H-indol-2-yl]pyridine-3-sulfonamide], for which the melting point (commonly the temperature, or range, at which the solid turns liquid) was 172 to 175 °C. Besides, the IC50 (usually the concentration that inhibits the measured activity by half) in data set [1] is less than 500 nM.
The like results for `CC(C)n1c(-c2ncc(S(=O)(=O)NC(CF)CF)cn2)c(C#N)c2ccc(OC(F)F)cc21` [compound 137, 2-[3-cyano-6-(difluoromethoxy)-1-(propan-2-yl)-1H-indol-2-yl]-N-(1,3-difluoropropan-2-yl)pyrimidine-5-sulfonamide] were, in that order, 219 to 221 °C and less than 500 nM.
Take `Cc1ccc2c(c1)c(C#N)c(-c1ccc(S(=O)(=O)NC(CF)CF)cn1)n2-c1ccccn1` [compound 504, 6-[3-cyano-5-methyl-1-(pyridin-2-yl)-1H-indol-2-yl]-N-(1,3-difluoropropan-2-yl)pyridine-3-sulfonamide]: the melting point lay within 177 to 179 °C. For the same compound, the IC50 in data set [1] is less than 500 nM.
The like results for `CC(C)NS(=O)(=O)c1cnc(-c2c(C#N)c3ccc(C(F)F)cc3n2C2CCC2)nc1` [compound 332, 2-[3-cyano-1-cyclobutyl-6-(difluoromethyl)-1H-indol-2-yl]-N-(propan-2-yl)pyrimidine-5-sulfonamide] were, in that order, 221 to 227 °C and less than 500 nM.
Consider `C[C@H](NS(=O)(=O)c1ccc(-c2c(C#N)c3cc(F)c(OC(F)F)cc3n2C2CCCC2)nc1)C(F)(F)F` [compound 574, 6-[3-cyano-1-cyclopentyl-6-(difluoromethoxy)-5-fluoro-1H-indol-2-yl]-N-[(2S)-1,1,1-trifluoropropan-2-yl]pyridine-3-sulfonamide], for which the melting point was in the range of 181 to 184 °C. Besides, the IC50 in data set [1] is less than 500 nM.
The compound `Cc1c(F)cc2c(C#N)c(-c3ccc(S(=O)(=O)NC(CF)CF)cn3)n(C3CCC3)c2c1F` [compound 533, 6-(3-cyano-1-cyclobutyl-5,7-difluoro-6-methyl-1H-indol-2-yl)-N-(1,3-difluoropropan-2-yl)pyridine-3-sulfonamide] registered a melting point of 158 to 170 °C. For the same compound, the IC50 in data set [1] is less than 500 nM.
Consider `Cc1cc2c(cc1F)c(C#N)c(-c1ccc(S(=O)(=O)NC(C)(C)C)cn1)n2C1CCC1` [compound 651, N-tert-butyl-6-(3-cyano-1-cyclobutyl-5-fluoro-6-methyl-1H-indol-2-yl)pyridine-3-sulfonamide], for which the melting point is 223 to 228 °C. The IC50 in data set [1] was less than 500 nM.
The like results for `Cc1csc(-n2c(-c3ccc(S(=O)(=O)N[C@@H](C)C(F)(F)F)cn3)c(C#N)c3cc(F)c(C)cc32)n1` [compound 1038, 6-[3-cyano-5-fluoro-6-methyl-1-(4-methyl-1,3-thiazol-2-yl)-1H-indol-2-yl]-N-[(2S)-1,1,1-trifluoropropan-2-yl]pyridine-3-sulfonamide] were, in that order, 206.3 to 211.7 °C and less than 500 nM.
The compound `N#Cc1c(-c2ncc(S(=O)(=O)NC(CF)CF)cn2)n(CC2CC2)c2cc(OC(F)F)ccc12` [compound 136, 2-[3-cyano-1-(cyclopropylmethyl)-6-(difluoromethoxy)-1H-indol-2-yl]-N-(1,3-difluoropropan-2-yl)pyrimidine-5-sulfonamide] displayed a melting point of 207 to 209 °C. Also, the IC50 in data set [1] was less than 500 nM.
The like results for `CC(C)(C)NS(=O)(=O)c1ccc(-c2c(C#N)c3cc(F)c(O)cc3n2C2CCC2)nc1` [compound 719, N-tert-butyl-6-(3-cyano-1-cyclobutyl-5-fluoro-6-hydroxy-1H-indol-2-yl)pyridine-3-sulfonamide] were, in that order, 242 to 245 °C and 500 to 2000 nM.
In the same order, the values of `CCc1cc2c(cc1F)c(C#N)c(-c1ncc(S(=O)(=O)N[C@@H](C)C(F)(F)F)cc1C)n2-c1ccccn1` [compound 870, 6-[3-cyano-6-ethyl-5-fluoro-1-(pyridin-2-yl)-1H-indol-2-yl]-5-methyl-N-[(2S)-1,1,1-trifluoropropan-2-yl]pyridine-3-sulfonamide] are 195 to 198 °C and less than 500 nM.
The like results for `N#Cc1c(-c2ccc(S(=O)(=O)NC3CC(F)(F)C3)cn2)n(C2CCC2)c2cc(C3CC3)ccc12` [compound 247, 6-(3-cyano-1-cyclobutyl-6-cyclopropyl-1H-indol-2-yl)-N-(3,3-difluorocyclobutyl)pyridine-3-sulfonamide] were, in that order, 176 to 178 °C and 500 to 2000 nM.
Compound `Cc1cc2c(C#N)c(-c3ccc(S(=O)(=O)NC(CF)CF)cn3)n(C3CCC3)c2cc1Cl` [compound 505, 6-(6-chloro-3-cyano-1-cyclobutyl-5-methyl-1H-indol-2-yl)-N-(1,3-difluoropropan-2-yl)pyridine-3-sulfonamide] showed a melting point of 195 to 196 °C. Further, the 50% inhibitory concentration (IC50) in data set [1] is less than 500 nM.
The like results for `Cc1cc2c(C#N)c(-c3ccc(S(=O)(=O)N[C@@H](C)C(F)(F)F)cn3)n(-c3ccccn3)c2cc1F` [compound 917, 6-[3-cyano-6-fluoro-5-methyl-1-(pyridin-2-yl)-1H-indol-2-yl]-N-[(2S)-1,1,1-trifluoropropan-2-yl]pyridine-3-sulfonamide] were, in that order, 175 to 180 °C and less than 500 nM.
In the same order, the values of `CCc1cc2c(cc1F)c(C#N)c(-c1ccc(S(=O)(=O)N[C@@H](C)C(F)(F)F)cn1)n2C1CCC1` [compound 640, 6-(3-cyano-1-cyclobutyl-6-ethyl-5-fluoro-1H-indol-2-yl)-N-[(2S)-1,1,1-trifluoropropan-2-yl]pyridine-3-sulfonamide] are 205 to 206 °C and less than 500 nM.
In turn, `Cc1ccc2c(C#N)c(-c3ncc(S(=O)(=O)N[C@@H](C)C4CC4)cn3)n(CC3CC3)c2c1` [compound 203, 2-[3-cyano-1-(cyclopropylmethyl)-6-methyl-1H-indol-2-yl]-N-[(1S)-1-cyclopropylethyl]pyrimidine-5-sulfonamide] yielded a melting point of 205 to 207 °C. In data set [1], the IC50 is less than 500 nM.
The like results for `C[C@H](NS(=O)(=O)c1ccc(-c2c(C#N)c3cc(Cl)ccc3n2-c2ccccc2)nc1)C(F)(F)F` [compound 441, 6-(5-chloro-3-cyano-1-phenyl-1H-indol-2-yl)-N-[(2S)-1,1,1-trifluoropropan-2-yl]pyridine-3-sulfonamide] were, in that order, 210 to 212 °C and less than 500 nM.
In the same order, the values of `Cc1cc2c(cc1Cl)c(C#N)c(-c1ncc(S(=O)(=O)NC(CF)CF)cn1)n2C1CCC1` [compound 447, 2-(5-chloro-3-cyano-1-cyclobutyl-6-methyl-1H-indol-2-yl)-N-(1,3-difluoropropan-2-yl)pyrimidine-5-sulfonamide] are 275 to 279 °C and less than 500 nM.
In the same order, the values of `CCc1cc2c(cc1F)c(C#N)c(-c1ccc(S(=O)(=O)NC(C)(C)C)cn1)n2C1CCC1` [compound 764, N-tert-butyl-6-(3-cyano-1-cyclobutyl-6-ethyl-5-fluoro-1H-indol-2-yl)pyridine-3-sulfonamide] are 186 to 188 °C and less than 500 nM.
Regarding `N#Cc1c(-c2ccc(S(=O)(=O)NC(CF)CF)cn2)n(-c2ccccc2)c2cc(C3CC3)ccc12` [compound 95, 6-(3-cyano-6-cyclopropyl-1-phenyl-1H-indol-2-yl)-N-(1,3-difluoropropan-2-yl)pyridine-3-sulfonamide], the melting point is 171 to 175 °C. Moreover, the IC50 in data set [1] is less than 500 nM.
`CCc1cc2c(cc1F)c(C(N)=O)c(-c1ccc(S(=O)(=O)NC(C)(C)C)cn1)n2-c1ccccc1` [compound 1109, 2-[5-(tert-butylsulfamoyl)pyridin-2-yl]-6-ethyl-5-fluoro-1-phenyl-1H-indole-3-carboxamide] displayed a melting point of 237.9 to 238.9 °C. Besides, the IC50 in data set [1] is less than 500 nM.
`NC(=O)c1c(-c2ccc(S(=O)(=O)Nc3ccccc3)cn2)n(C2CCC2)c2cc(OC(F)F)c(F)cc12` [compound 798, 1-cyclobutyl-6-(difluoromethoxy)-5-fluoro-2-[5-(phenylsulfamoyl)pyridin-2-yl]-1H-indole-3-carboxamide] returned a melting point of 204 to 206 °C. The IC50 in data set [1] is 500 to 2000 nM.
Regarding `Cc1cc2c(cc1F)c(C(N)=O)c(-c1ccc(S(=O)(=O)NC3(C(F)(F)F)CC3)cn1)n2C1CCCCC1` [compound 857, 1-cyclohexyl-5-fluoro-6-methyl-2-(5-{[1-(trifluoromethyl)cyclopropyl]sulfamoyl}pyridin-2-yl)-1H-indole-3-carboxamide], the melting point was in the range of 273 to 274 °C. Moreover, the IC50 in data set [1] is less than 500 nM.
In the same order, the values of `Cc1cc2c(cc1F)c(C#N)c(-c1ccc(S(=O)(=O)N[C@@H](C)C(F)(F)F)cn1)n2-c1ncc(CO)s1` [compound 984, 6-{3-cyano-5-fluoro-1-[5-(hydroxymethyl)-1,3-thiazol-2-yl]-6-methyl-1H-indol-2-yl}-N-[(2S)-1,1,1-trifluoropropan-2-yl]pyridine-3-sulfonamide] are 180 to 185 °C and less than 500 nM.
In turn, `C[C@H](NS(=O)(=O)c1cnc(-c2c(C#N)c3cc(Cl)ccc3n2C2CCC2)nc1)C(F)(F)F` [compound 454, 2-(5-chloro-3-cyano-1-cyclobutyl-1H-indol-2-yl)-N-[(2S)-1,1,1-trifluoropropan-2-yl]pyrimidine-5-sulfonamide] returned a melting point of 232 to 234 °C. Also, the IC50 in data set [1] is less than 500 nM.
Compound `Cc1cc2c(cc1F)c(C#N)c(-c1ccc(S(=O)(=O)NC(C)C)cn1)n2C1CCC1` [compound 655, 6-(3-cyano-1-cyclobutyl-5-fluoro-6-methyl-1H-indol-2-yl)-N-(propan-2-yl)pyridine-3-sulfonamide] yielded a melting point of 222 to 226 °C. In data set [1], the IC50 is less than 500 nM.
For the compound `C[C@H](NS(=O)(=O)c1ccc(-c2c(C#N)c3cc(C(F)(F)F)ccc3n2-c2ncccn2)nc1)C(F)(F)F` [compound 922, 6-[3-cyano-1-(pyrimidin-2-yl)-5-(trifluoromethyl)-1H-indol-2-yl]-N-[(2S)-1,1,1-trifluoropropan-2-yl]pyridine-3-sulfonamide], the melting point was 180 to 183 °C. Further, the IC50 in data set [1] was less than 500 nM.
